The values that follow come from ChEMBL document CHEMBL6114982, “Structural optimization and characterization of highly potent and selective STAT3 inhibitors for the treatment of triple negative breast cancer” (Eur J Med Chem, 2025).

The source made the active and inactive calls. The rule behind the calls is not given here.

The test system of series [1] is BT-549. The series can be described thus: Downregulation of cyclin D1 level in human BT-549 cells measured after 48 hrs by Western blot analysis. It is filed as functional, cell-based. The following applies: dose 0.05-0.5 µM.
Series [2] concerns BT-549. Briefly: Effect on Akt phosphorylation level in human BT-549 cells at 0.05 to 0.5 uM measured after 48 hrs by Western blot analysis. The class given is functional, cell-based. The conditions noted are these: dose 0.05-0.5 µM.
Series [3] concerns the target T1, Signal transducer and activator of transcription 3 (Homo sapiens, UniProt P40763). Briefly: Inhibition of STAT3 nuclear translocation in human BT-549 cells assessed as decrease in p-STAT3 at Tyr705 residue at 0.05 to 0.5 uM preincubated for 48 hrs followed by IL-6 addition and measured after 2 hrs by Immunofluorescence analysis. The class given is cell-based. The following applies: dose 0.05-0.5 µM, time 50.0 hrs.

Series [4] relates to BT-549. Briefly: Downregulation of STAT3 phosphorylation level in human BT-549 cells preincubated for 48 hrs followed by IL-6 addition and measured after 2 hrs by Western blot analysis. It is filed as functional, cell-based. The following applies: dose 0.05-0.5 µM, time 50.0 hrs.
Series [5] deals with MDA-MB-231. Briefly: Downregulation of N-cadherin expression level in human MDA-MB-231 cells by Western blot analysis. It is filed as functional, cell-based.
For series [6], the system named is MDA-MB-231. Briefly: Induction of apoptosis in human MDA-MB-231 cells assessed as late apoptotic at 0.1 uM incubated for 48 hrs by Annexin V and PI staining based flow cytometry analysis (reference value: 2.71%). The class given is functional.
Series [7] deals with MDA-MB-231. The series can be described thus: Antitumor activity against human MDA-MB-231 cells xenografted in female nude BALB/c mouse model assessed as tumor growth inhibition at 10 mg/kg, ip administered every other day for 30 days relative to control. The class given is functional. The conditions noted are these: MDA-MB-231, 720 h, time 30 day, read-out: TGI.
Series [8] is described as follows: Toxicity in female BALB/c nude mouse assessed as effect on spleen at 10 to 20 mg/kg, iv measured after 30 days by H and E staining based analysis. The conditions noted are these: in vivo, 720 h, dose 10-20 mg/kg, time 30 day. It is filed as organism-based.
In series [9] the target is T1, Signal transducer and activator of transcription 3. The series can be described thus: Inhibition of STAT3 phosphorylation in human MDA-MB-231 cells assessed as downregulation of KRT1 expression level. It is filed as cell-based.

T1 sequence (P40763 whole entry): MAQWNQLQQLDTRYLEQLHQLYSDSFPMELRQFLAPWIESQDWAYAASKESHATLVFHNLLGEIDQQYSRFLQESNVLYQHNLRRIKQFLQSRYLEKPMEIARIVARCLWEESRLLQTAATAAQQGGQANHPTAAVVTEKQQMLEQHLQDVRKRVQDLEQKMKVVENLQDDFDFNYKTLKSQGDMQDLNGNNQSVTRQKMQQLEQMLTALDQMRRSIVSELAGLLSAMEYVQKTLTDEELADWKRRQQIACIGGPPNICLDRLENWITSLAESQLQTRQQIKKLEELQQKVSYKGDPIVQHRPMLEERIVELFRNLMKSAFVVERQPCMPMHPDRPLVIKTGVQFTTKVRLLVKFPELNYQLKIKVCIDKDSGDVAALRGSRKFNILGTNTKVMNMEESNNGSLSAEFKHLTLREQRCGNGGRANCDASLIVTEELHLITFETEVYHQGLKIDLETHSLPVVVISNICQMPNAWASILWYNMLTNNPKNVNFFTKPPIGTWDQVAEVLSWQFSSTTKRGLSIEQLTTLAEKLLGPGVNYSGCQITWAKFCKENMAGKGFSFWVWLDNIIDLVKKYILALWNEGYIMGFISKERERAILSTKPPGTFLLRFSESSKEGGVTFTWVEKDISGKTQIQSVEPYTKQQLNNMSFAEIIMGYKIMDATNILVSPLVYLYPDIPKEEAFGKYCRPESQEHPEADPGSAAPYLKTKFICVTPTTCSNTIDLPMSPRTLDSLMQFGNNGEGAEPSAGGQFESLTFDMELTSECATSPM

Regarding `COc1cccc(C(=O)Nc2sc3c(c2C#N)CCN(C(=O)Nc2ccccc2OC)C3)c1`, the Activity entry was “Dose-dependent-effect” with BT-549 [1], “Dose-dependent-effect” in the series on BT-549 [4], 16.08% in the series with MDA-MB-231 [6] and “Non-toxic” in series [8]. For the same compound, the result in the series with BT-549 [2] was inactive. In addition, the inhibition result in series [3] and in series [9] was “Active” each time. Also, in the series with MDA-MB-231 [5], the result was Active. Further, the inhibition in vivo at 10 mg/kg with MDA-MB-231 [7] worked out at 51.5%.
